Test results from patent US20210308089A1, “METHODS OF TREATING AND/OR PREVENTING VIRAL INFECTIONS AND/OR DISEASES CAUSED BY VIRUSES IN A SUBJECT IN NEED THEREOF” (priority 2020, published 2021).

Test system: patients of the REDUCE-IT and earlier EPA placebo-controlled trials
Test: Example 3: adverse events by risk ratio, icosapent ethyl vs placebo (candidate categories; infectious disease terms of interest)
Conditions: R-I
[1] = Age-Related Macular Degeneration

CC/C=C\C/C=C\C/C=C\C/C=C\C/C=C\CCCC(=O)OCC [icosapent ethyl, eicosapentaenoic acid ethyl ester]
Risk Ratio (95% CI): Cognitive Decline: Cognitive and attention disorders and disturbances (AE table): 1.000 (0.141 to 7.097) −1
Risk Ratio (95% CI): Cognitive Decline: Cognitive disturbances (AE table): [No cases in study]
Risk Ratio (95% CI): Cough (AE table): 1.000 (0.841 to 1.189) −1
Risk Ratio (95% CI): Cystic Fibrosis (AE table): [No cases in study]
Risk Ratio (95% CI): Decreased Appetite (AE table): 2.584 (1.329 to 5.024) −4
Risk Ratio (95% CI): Deep Venous Thromboembolism (AE table): 0.625 (0.205 to 1.909) 2
Risk Ratio (95% CI): Depression: Depressed mood disorders and disturbances (AE table): 1.106 (0.861 to 1.422) −1
Risk Ratio (95% CI): Depression: Depressive disorders (AE table): 1.123 (0.867 to 1.454) −1
Risk Ratio (95% CI): Depression: Depressive disorders - Agitated depression (AE table): [2 drugs vs 0 PBO]
Risk Ratio (95% CI): Depression: Depressive disorders - Depression (AE table): 1.097 (0.843 to 1.428) −1
Risk Ratio (95% CI): Depression: Depressive disorders - Major depression (AE table): 3.001 (0.312 to 28.836) −4
Risk Ratio (95% CI): Depression: Depressive disorders - Persistent depressive disorder (AE table): 2.000 (0.181 to 22.053) −3
Risk Ratio (95% CI): Depression: Mood alterations - Depressed mood (AE table): 1.000 (0.290 to 3.452) −1
Risk Ratio (95% CI): Depression: Mood alterations - Depressive symptom (AE table): 0.500 (0.045 to 5.513) 3
Risk Ratio (95% CI): Depression: Mood alterations with depressive symptoms (AE table): 0.857 (0.288 to 2.549) 1
Risk Ratio (95% CI): Dermatitis psoriasiform (AE table): [1 drug vs 0 PBO]
Risk Ratio (95% CI): Dermatitis, allergic (AE table): 0.250 (0.071 to 0.885) 4
Risk Ratio (95% CI): Diabetic Nephropathy (AE table): 0.909 (0.387 to 2.139) 1
Risk Ratio (95% CI): ESRD (AE table): 0.667 (0.111 to 3.989) 2
Risk Ratio (95% CI): Ear infection (AE table): 0.821 (0.515 to 1.307) 1
Risk Ratio (95% CI): Embolism and Thrombosis (AE table): 1.064 (0.716 to 1.581) −1
Risk Ratio (95% CI): Emphysema (AE table): 0.600 (0.294 to 1.266) 2
Risk Ratio (95% CI): Epilepsy (AE table): 1.000 (0.063 to 15.986) −1
Risk Ratio (95% CI): Erectile dysfunction (AE table): 0.784 (0.535 to 1.151) 2
Risk Ratio (95% CI): Furuncle (AE table): 0.500 (0.171 to 1.462) 3
Risk Ratio (95% CI): Gastroenteritis, viral (AE table): 0.789 (0.525 to 1.185) 2
Risk Ratio (95% CI): Gastroesophageal reflux (AE table): 0.333 (0.090 to 1.231) 4
Risk Ratio (95% CI): Gingivitis (AE table): 0.500 (0.171 to 1.462) 3
Risk Ratio (95% CI): Glomerulonephritis and Nephrotic Syndrome (AE table): [0 drug vs 4 PBO]
Risk Ratio (95% CI): Guttate psoriasis (AE table): [1 drug vs 0 PBO)
Risk Ratio (95% CI): Helicobacter infection (AE table): 0.556 (0.186 to 1.657) 3
Risk Ratio (95% CI): Hepatitis C (AE table): [1 drug vs 0 PBO]
Risk Ratio (95% CI): Herpes Zoster (AE table): 0.960 (0.695 to 1.325) 1
Risk Ratio (95% CI): Herpes simplex (AE table): 0.625 (0.205 to 1.909) 2
Risk Ratio (95% CI): Hyperglycemia (AE table): 0.764 (0.562 to 1.037) 2
Risk Ratio (95% CI): Hyperkalemia (AE table): 0.582 (0.377 to 0.898) 3
Risk Ratio (95% CI): Hypertension (AE table): 0.930 (0.804 to 1.077) 1
Risk Ratio (95% CI): Hypertensive Crisis (AE Table): 0.698 (0.439 to 1.110) 2
Risk Ratio (95% CI): Hypokalemia (AE table): 1.064 (0.784 to 1.445) −1
Risk Ratio (95% CI): Hypomagnesemia (AE table): 0.675 (0.422 to 1.078) 2
Risk Ratio (95% CI): IgA Nephropathy (AE table): [No cases in study]
Risk Ratio (95% CI): Infected bite (AE table): 0.714 (0.227 to 2.249) 2
Risk Ratio (95% CI): Influenza (AE table): 0.971 (0.824 to 1.144) 1
Risk Ratio (95% CI): Influenza like illness (AE table): 0.852 (0.489 to 1.483) 1
Risk Ratio (95% CI): Jaundice cholestatic (AE table): [4 drug vs 0 PBO]
Risk Ratio (95% CI): Large intestine polyps (AE table): 0.385 (0.137 to 1.078) 4
Risk Ratio (95% CI): Limb Fractures and Dislocations (AE table): 0.883 (0.541 to 1.439) 1
Risk Ratio (95% CI): Lupus (AE table): [0 drugs vs 1 PBO]
Risk Ratio (95% CI): Male Infertility (AE table): [No cases in study]
Risk Ratio (95% CI): Microalbuminuria (AE table): 0.214 (0.062 to 0.745) 4
Risk Ratio (95% CI): Migraine (AE table): 2.751 (0.877 to 8.631) −4
Risk Ratio (95% CI): Mucosal inflammation (AE table): 0.600 (0.144 to 2.510) 2
Risk Ratio (95% CI): Multiple Sclerosis (AE table): [0 drugs vs 1 PBO]
Risk Ratio (95% CI): Muscle spasms (AE table): 0.579 (0.421 to 0.795) 3
Risk Ratio (95% CI): NASH (AE table): 0.167 (0.020 to 1.384) 5
Risk Ratio (95% CI): NASH for b/l NFS >0.675 (AE table): 0.252 (0.028 to 2.251) 4
Risk Ratio (95% CI): NASH+Hepatic Steatosis for NFS >0.675 (AE table): 0.740 (0.342 to 1.601) 2
Risk Ratio (95% CI): Nasopharyngitis, Mild Severity (AE table): 0.975 (0.840 to 1.133) 1
Risk Ratio (95% CI): Nephrolithiasis (AE table): 1.050 (0.777 to 1.419) −1
Risk Ratio (95% CI): Nephropathies (AE table): 0.679 (0.380 to 1.213) 2
Risk Ratio (95% CI): Nephrotic Syndrome (AE table): [0 drug vs 1 PBO]
Risk Ratio (95% CI): Orthopnea (AE table): 0.500 (0.151 to 1.660) 3
Risk Ratio (95% CI): PMS/Dysmenorrhea (AE table): [No cases in study]
Risk Ratio (95% CI): PTSD (AE table): 0.667 (0.111 to 3.989) 2
Risk Ratio (95% CI): Pancytopenia (AE table): 0.556 (0.186 to 1.657) 3
Risk Ratio (95% CI): Pneumonia (AE table): 0.950 (0.807 to 1.118) 1
Risk Ratio (95% CI): Polycystic Ovarian Syndrome (AE table): [No cases in study]
Risk Ratio (95% CI): Proteinuria (AE table): 0.609 (0.314 to 1.181) 2
Risk Ratio (95% CI): Psoriasis (AE table): 1.750 (0.949 to 3.230) −3
Risk Ratio (95% CI): Psoriatic Conditions (AE table): 1.875 (1.024 to 3.435) −3
Risk Ratio (95% CI): Psychosis: Psychotic disorder NEC (AE table): 0.500 (0.045 to 5.513) 3
Risk Ratio (95% CI): Pulmonary Edema (AE table): 0.556 (0.257 to 1.202) 3
Risk Ratio (95% CI): Rental Transplant (AE table): [No cases in study]
Risk Ratio (95% CI): Respiratory Failure (AE table): 0.909 (0.497 to 1.664) 1
Risk Ratio (95% CI): Respiratory tract infection (AE table): 0.939 (0.629 to 1.401) 1
Risk Ratio (95% CI): Rheumatoid Arthritis (AE table): [0 drug vs 3 PBO]
Risk Ratio (95% CI): Rhinitis (AE table): 0.727 (0.383 to 1.383) 2
Risk Ratio (95% CI): Schizophrenia NEC (AE table): 0.500 (0.045 to 5.513) 3
Risk Ratio (95% CI): Sepsis (AE table): 0.786 (0.499 to 1.237) 2
Risk Ratio (95% CI): Severe chronic obstructive pulmonary disease (AE table): 0.857 (0.458 to 1.607) 1
Risk Ratio (95% CI): Severe dermatitis, allergic (AE table): 0.250 (0.028 to 2.236) 4
Risk Ratio (95% CI): Severe gastroenteritis (AE table): 0.667 (0.273 to 1.630) 2
Risk Ratio (95% CI): Severe sepsis (AE table): 0.759 (0.437 to 1.318) 2
Risk Ratio (95% CI): Severe systemic inflammatory response syndrome (AE table): 0.167 (0.020 to 1.384) 5
Risk Ratio (95% CI): Severe urinary tract infection (AE table): 0.650 (0.324 to 1.305) 2
Risk Ratio (95% CI): Sickle Cell Disease (AE table): [No cases in study]
Risk Ratio (95% CI): Systemic inflammatory response syndrome (AE table): 0.250 (0.053 to 1.177) 4
Risk Ratio (95% CI): Tooth infection (AE table): 0.690 (0.391 to 1.217) 2
Risk Ratio (95% CI): Ulcerative Colitis (AE table): [0 drug vs 1 PBO]
Risk Ratio (95% CI): Vascular hypertensive disorder (AE table): 0.914 (0.796 to 1.050) 1
Risk Ratio (95% CI): Vulvovaginal mycotic infection (AE table): 0.455 (0.158 to 1.307) 3
Risk Ratio (95% CI): Wheezing (AE table): 0.639 (0.379 to 1.076) 2
ARR (ADHD): 0.0%
NNT (ADHD): −8362005
Risk Ratio (95% CI) (ADHD): 1.000 (0.141 to 7.097) −1
ARR (Acute Myeloid Leukaemia): 0.0%
NNT (Acute Myeloid Leukaemia): −8362005
Risk Ratio (95% CI) (Acute Myeloid Leukaemia): 1.000 (0.141 to 7.097) −1
ARR [1]: 0.0%
NNT [1]: −4088
Risk Ratio (95% CI) [1]: 2.000 (0.181 to 22.053) −3
ARR (Alzheimer's Disease): 0.0%
NNT (Alzheimer's Disease): −3344802
Risk Ratio (95% CI) (Alzheimer's Disease): 1.000 (0.290 to 3.452) −1
ARR (Asthma): 0.1%
NNT (Asthma): −1019
Risk Ratio (95% CI) (Asthma): 1.076 (0.742 to 1.560) −1
